A word on the pKb: it is the Kb on a negative log10 scale, so that one unit is a factor of ten. For orientation: Emax means the maximal effect, on the per cent scale that the assay sets. By EC50 is commonly meant the concentration giving half of the maximal effect. A higher EC50 goes with lower potency in that assay. As usually defined, the IC50 is the concentration that inhibits the measured activity by half.

In assay [1] the target is T1, Adenosine receptor A1 (Homo sapiens) (UniProt P30542).
T1 sequence (whole entry): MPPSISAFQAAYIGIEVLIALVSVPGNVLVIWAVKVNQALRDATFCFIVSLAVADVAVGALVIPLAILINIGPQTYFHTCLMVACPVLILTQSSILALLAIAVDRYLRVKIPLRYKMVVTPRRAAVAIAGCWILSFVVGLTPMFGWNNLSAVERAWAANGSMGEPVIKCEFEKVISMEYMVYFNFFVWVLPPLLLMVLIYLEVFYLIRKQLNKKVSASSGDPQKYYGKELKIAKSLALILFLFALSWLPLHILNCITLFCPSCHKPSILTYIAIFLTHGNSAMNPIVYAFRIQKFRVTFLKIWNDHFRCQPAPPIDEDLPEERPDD
Briefly: Allosteric modulation at adenosine A1 receptor assessed as receptor mediated ERK1/2 phosphorylation.

The target of assay [2] is T2, Muscarinic acetylcholine receptor M1 (Homo sapiens) (UniProt P11229).
T2 sequence (whole entry): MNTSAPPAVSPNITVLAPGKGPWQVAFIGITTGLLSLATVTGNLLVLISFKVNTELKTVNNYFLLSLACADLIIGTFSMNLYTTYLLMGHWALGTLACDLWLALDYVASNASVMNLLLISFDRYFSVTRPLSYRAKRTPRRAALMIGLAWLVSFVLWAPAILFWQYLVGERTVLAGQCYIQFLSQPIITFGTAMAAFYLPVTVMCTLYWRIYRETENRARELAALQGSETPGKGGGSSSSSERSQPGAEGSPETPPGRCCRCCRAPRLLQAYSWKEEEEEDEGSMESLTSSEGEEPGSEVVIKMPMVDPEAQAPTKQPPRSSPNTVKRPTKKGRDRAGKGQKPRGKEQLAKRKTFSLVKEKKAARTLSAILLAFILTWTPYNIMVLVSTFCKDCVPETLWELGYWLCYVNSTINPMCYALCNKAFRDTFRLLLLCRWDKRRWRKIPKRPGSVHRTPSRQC
The assay can be described thus: Positive allosteric modulation activity at muscarinic M1 receptor relative to acetylcholine.

Assay [3] concerns the target T3, Muscarinic acetylcholine receptor M5 (Homo sapiens) (UniProt P08912).
T3 sequence (whole entry): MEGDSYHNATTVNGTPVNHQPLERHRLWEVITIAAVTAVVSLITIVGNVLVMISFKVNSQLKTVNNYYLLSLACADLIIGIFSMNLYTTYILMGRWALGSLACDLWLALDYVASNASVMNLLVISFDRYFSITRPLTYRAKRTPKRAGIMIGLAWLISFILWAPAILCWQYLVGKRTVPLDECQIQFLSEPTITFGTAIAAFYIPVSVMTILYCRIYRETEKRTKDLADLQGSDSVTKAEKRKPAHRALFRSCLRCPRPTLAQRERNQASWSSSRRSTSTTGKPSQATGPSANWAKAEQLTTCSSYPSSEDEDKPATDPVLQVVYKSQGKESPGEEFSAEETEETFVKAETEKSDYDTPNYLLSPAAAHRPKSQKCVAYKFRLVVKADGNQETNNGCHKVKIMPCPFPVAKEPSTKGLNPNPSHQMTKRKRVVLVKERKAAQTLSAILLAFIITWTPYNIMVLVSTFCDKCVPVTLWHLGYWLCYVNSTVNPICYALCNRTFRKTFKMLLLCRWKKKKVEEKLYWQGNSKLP
The assay can be described thus: Positive allosteric modulation activity at muscarinic M5 receptor relative to acetylcholine.

Assay [4] has as its target Muscarinic acetylcholine receptor M3 (Homo sapiens) (UniProt P20309). The assay can be described thus: Positive allosteric modulation activity at muscarinic M3 receptor relative to acetylcholine.
Assay [5] concerns the target T4, Muscarinic acetylcholine receptor M1 (Homo sapiens, UniProt P11229).
T4 sequence (P11229 whole entry): T2 sequence (whole entry)
Briefly: Positive allosteric modulation activity at muscarinic M1 receptor.

Assay [6] has as its target T5, Metabotropic glutamate receptor 5 (Homo sapiens, UniProt P41594). Briefly: Positive allosteric modulation activity at mGlu5 receptor relative to glutamate.
Target sequence in this assay (P41594 21-1212 limits assumed): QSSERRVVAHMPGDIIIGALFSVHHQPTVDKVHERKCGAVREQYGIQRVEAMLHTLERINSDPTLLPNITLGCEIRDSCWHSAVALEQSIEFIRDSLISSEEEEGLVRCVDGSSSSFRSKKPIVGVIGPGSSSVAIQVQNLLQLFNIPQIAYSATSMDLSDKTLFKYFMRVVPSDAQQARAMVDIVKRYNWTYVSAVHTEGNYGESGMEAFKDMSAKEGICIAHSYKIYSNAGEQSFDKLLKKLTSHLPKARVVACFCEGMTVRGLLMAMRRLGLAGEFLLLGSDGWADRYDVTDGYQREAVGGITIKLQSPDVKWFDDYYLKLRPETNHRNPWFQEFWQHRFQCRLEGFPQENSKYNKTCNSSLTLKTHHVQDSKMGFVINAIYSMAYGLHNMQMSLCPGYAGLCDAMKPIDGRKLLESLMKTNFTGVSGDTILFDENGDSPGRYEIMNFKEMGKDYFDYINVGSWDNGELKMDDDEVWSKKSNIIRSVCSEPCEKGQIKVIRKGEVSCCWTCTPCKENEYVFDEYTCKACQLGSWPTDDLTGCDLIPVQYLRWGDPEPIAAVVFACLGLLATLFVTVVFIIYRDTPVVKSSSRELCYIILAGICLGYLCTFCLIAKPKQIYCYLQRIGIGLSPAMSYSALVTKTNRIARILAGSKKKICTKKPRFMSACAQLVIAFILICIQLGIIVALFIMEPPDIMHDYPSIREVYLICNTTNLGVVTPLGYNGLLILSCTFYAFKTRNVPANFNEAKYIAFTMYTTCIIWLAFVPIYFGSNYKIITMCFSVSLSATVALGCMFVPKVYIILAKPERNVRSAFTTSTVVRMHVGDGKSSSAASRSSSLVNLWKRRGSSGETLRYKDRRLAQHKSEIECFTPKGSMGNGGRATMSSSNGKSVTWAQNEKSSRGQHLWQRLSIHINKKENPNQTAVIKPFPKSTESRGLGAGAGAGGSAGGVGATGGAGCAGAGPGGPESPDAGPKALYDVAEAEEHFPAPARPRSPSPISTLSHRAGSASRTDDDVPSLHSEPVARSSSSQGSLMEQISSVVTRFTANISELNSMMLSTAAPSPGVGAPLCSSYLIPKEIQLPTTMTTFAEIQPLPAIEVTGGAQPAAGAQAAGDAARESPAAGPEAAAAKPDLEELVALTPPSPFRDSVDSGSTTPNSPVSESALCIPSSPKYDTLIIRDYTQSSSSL
The target in assay [7] is T5, Metabotropic glutamate receptor 5. Briefly: Positive allosteric modulation activity at mGlu5 receptor.
Target sequence in this assay (P41594 whole entry): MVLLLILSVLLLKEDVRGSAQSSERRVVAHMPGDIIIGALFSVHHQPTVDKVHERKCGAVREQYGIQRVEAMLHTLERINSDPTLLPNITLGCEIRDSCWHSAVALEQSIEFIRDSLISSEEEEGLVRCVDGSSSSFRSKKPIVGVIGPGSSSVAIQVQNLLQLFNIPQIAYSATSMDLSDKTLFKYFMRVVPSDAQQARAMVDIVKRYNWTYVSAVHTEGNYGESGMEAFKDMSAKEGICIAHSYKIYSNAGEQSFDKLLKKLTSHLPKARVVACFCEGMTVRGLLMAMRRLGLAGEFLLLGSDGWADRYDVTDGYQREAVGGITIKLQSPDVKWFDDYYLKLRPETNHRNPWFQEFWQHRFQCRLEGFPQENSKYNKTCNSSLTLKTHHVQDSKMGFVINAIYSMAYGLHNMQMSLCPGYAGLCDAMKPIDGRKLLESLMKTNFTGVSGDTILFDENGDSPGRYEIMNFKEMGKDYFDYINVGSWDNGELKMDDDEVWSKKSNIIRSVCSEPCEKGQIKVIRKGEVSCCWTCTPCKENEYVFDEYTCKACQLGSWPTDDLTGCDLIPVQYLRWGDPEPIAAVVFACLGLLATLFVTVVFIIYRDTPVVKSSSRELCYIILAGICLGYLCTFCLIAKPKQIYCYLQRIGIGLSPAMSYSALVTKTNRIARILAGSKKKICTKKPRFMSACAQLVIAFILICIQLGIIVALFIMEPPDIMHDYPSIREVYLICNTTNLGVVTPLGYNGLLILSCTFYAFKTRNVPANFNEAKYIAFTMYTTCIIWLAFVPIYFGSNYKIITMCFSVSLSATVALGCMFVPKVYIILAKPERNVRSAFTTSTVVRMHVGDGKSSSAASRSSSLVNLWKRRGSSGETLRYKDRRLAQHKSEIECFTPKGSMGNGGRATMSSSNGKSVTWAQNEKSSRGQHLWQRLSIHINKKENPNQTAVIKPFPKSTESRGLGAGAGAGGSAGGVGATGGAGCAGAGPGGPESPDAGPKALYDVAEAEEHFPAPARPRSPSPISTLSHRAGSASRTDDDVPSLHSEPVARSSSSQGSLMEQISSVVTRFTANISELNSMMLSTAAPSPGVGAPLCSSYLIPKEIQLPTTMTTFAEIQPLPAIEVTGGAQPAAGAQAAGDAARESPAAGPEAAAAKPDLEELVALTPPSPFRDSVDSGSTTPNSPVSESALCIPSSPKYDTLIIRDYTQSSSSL
Assay [8] has the same target. The assay can be described thus: Negative allosteric modulation activity at mGlu5 receptor.
Target sequence in this assay (P41594 whole entry): as above
Assay [9] concerns the target Metabotropic glutamate receptor 2 (Homo sapiens, UniProt Q14416). Briefly: Positive allosteric modulation activity at mGlu2 receptor.
Assay [10] has as its target Metabotropic glutamate receptor 6 (Homo sapiens, UniProt O15303). Briefly: Positive allosteric modulation activity at mGlu6 receptor.
In assay [11] the target is Metabotropic glutamate receptor 7 (Homo sapiens, UniProt Q14831). The assay can be described thus: Positive allosteric modulation activity at mGlu7 receptor.
Metabotropic glutamate receptor 7, sequence (Q14831 whole entry): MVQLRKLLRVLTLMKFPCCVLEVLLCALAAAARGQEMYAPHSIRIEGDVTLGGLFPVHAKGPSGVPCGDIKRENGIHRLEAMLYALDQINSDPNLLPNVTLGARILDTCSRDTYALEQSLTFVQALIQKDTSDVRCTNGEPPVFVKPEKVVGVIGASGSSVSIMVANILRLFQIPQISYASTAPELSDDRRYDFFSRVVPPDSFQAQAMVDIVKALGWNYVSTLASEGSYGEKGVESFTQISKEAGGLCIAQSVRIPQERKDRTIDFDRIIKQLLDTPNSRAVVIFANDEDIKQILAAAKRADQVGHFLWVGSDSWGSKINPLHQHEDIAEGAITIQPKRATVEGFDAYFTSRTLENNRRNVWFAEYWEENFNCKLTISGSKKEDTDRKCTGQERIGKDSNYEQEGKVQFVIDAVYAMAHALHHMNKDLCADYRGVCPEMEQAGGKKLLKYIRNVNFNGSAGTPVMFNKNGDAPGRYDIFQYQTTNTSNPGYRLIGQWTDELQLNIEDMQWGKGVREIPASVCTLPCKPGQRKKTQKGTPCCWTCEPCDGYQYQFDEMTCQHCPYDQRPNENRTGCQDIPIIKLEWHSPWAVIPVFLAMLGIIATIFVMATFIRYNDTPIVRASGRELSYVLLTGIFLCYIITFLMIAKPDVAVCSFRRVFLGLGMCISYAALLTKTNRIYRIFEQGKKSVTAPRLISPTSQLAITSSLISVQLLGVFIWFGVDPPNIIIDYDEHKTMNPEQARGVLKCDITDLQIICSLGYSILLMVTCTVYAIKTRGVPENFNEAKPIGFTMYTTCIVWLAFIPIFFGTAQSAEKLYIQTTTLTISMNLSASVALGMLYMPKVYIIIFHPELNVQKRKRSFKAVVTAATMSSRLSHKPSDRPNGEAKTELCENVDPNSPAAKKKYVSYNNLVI
Assay [12] deals with Metabotropic glutamate receptor 1 (Homo sapiens, UniProt Q13255). Briefly: Positive allosteric modulation activity at mGlu1 receptor.
The target of assay [13] is Metabotropic glutamate receptor 4 (Homo sapiens) (UniProt Q14833). The assay can be described thus: Positive allosteric modulation activity at mGlu4 receptor relative to glutamate.
Assay [14] concerns the target Metabotropic glutamate receptor 8 (Homo sapiens, UniProt O00222). The assay can be described thus: Positive allosteric modulation activity at mGlu8 receptor.
Assay [15] addresses Metabotropic glutamate receptor 3 (Homo sapiens, UniProt Q14832). Briefly: Positive allosteric modulation activity at mGlu3 receptor.

Metabotropic glutamate receptor 3, sequence (Q14832 whole entry): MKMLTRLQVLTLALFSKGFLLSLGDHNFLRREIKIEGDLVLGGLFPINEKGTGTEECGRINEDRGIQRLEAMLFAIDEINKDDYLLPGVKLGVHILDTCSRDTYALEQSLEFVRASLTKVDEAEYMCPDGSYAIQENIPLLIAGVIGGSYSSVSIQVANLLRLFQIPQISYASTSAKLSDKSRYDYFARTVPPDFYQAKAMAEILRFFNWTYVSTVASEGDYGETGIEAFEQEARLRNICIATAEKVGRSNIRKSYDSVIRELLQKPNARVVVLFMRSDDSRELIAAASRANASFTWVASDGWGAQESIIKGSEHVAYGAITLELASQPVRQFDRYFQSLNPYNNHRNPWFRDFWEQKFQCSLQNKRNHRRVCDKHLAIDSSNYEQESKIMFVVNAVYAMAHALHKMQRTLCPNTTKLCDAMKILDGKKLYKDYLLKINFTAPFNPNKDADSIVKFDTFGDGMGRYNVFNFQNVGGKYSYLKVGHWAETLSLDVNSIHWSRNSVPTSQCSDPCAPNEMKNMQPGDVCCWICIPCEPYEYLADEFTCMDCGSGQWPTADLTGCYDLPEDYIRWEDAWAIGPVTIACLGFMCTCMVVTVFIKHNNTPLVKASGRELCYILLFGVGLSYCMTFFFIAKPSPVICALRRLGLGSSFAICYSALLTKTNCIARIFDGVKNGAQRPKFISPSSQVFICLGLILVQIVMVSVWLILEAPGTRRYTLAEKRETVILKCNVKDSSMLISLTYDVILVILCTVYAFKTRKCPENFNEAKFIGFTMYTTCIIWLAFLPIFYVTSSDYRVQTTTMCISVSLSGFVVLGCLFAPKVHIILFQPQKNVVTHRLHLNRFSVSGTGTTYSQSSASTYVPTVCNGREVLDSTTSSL
Muscarinic acetylcholine receptor M3 (Homo sapiens), sequence (P20309 whole entry, looked up): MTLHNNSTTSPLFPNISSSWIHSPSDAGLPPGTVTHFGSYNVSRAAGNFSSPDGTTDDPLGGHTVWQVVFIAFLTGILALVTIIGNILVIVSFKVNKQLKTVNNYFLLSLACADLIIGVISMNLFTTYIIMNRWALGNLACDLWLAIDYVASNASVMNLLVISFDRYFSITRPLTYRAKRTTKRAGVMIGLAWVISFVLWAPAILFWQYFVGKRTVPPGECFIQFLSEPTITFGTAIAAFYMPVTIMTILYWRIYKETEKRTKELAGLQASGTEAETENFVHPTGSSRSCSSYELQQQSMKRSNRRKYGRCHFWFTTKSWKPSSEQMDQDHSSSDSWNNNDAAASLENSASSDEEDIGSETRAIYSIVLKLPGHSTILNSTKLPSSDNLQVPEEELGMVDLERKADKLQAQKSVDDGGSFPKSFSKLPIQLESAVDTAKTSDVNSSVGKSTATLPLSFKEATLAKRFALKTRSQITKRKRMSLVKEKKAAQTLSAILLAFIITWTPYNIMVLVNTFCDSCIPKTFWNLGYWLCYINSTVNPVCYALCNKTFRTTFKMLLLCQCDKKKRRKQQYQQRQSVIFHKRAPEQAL

For the compound `Nc1sc(-c2cncnc2)cc1C(=O)c1ccccc1`, the pKb in assay [1] worked out at 5.82. Same read-out and setting: in the case of `CCOC(=O)c1c(N)sc2c1CCN(C(=O)OC(C)(C)C)CC2` it was 6.07; in that of `Nc1scc(-c2cc(C(F)(F)F)cc(C(F)(F)F)c2)c1C(=O)c1ccc(Cl)cc1`, 5.46. Regarding `Cn1cc(-c2ccc(CN3C(=O)C(=O)c4ccccc43)c(F)c2)cn1`, in assay [2], the Emax was 65%. Consider `O=C1C(=O)N(Cc2ccc(Br)cc2)c2ccccc21`, for which the figures for the maximal effect (Emax) in [3], in assay [4] and in assay [2] were 74%, 66% and 82%, respectively. The compound `O=C1C(=O)N(Cc2ccc(Oc3ccccc3)cc2)c2ccc(OC(F)(F)F)cc21` registered an Emax in assay [3] of 75%.

For the compound `Nc1sc2c(c1C(=O)c1ccc(Cl)cc1)CC1C=CC(C(F)(F)F)=CC1C2` (stereo unspecified), in [1], the pKb was 5.11. In turn, `O=C(O)c1cn(Cc2ccc(-c3ccccc3)cc2)c2c(F)ccc(F)c2c1=O` yielded a concentration for a half-maximal effect (EC50) in assay [5] of 270 nM. For `Cc1ccc(C#Cc2cncnc2)cc1`, the Emax in assay [6] was 99%. In assay [7], this compound displayed an EC50 of 3.3 µM.

Regarding `C(#Cc1cncnc1)c1ccccc1`, the IC50 in assay [8] is 486 nM.

Take `CC(C)(C)OC(=O)N1CCc2sc(N)c(C(=O)c3ccc(Cl)cc3)c2CC1`: the negative-log Kb (pKb) in assay [1] came to 5.23. Same read-out and setting: in the case of `Nc1sc2c(c1C(=O)c1ccc(Cl)cc1)CCCC2` it was 5.49; in that of `Nc1scc(-c2ccccc2F)c1C(=O)c1ccc(Cl)cc1`, 5.1; in that of `Nc1scc(-c2cccc(F)c2)c1C(=O)c1ccc(Cl)cc1`, 5.88. With `Nc1sc2c(c1C(=O)c1ccc(Cl)cc1)CC1C=CC=CC1C2` (stereo unspecified), the negative logarithm of the Kb (pKb) in assay [1] was found to be 6.01.

In the case of `Nc1sc(-c2cncnc2)c2c1C(=O)c1ccccc1-2`, the negative logarithm of the Kb (pKb) in assay [1] amounted to 6.67. Consider `CNc1ncc(C#Cc2ccccc2)cn1`, for which the Emax in [6] is 128%. Consider `Cc1cccc(C#Cc2cncnc2)c1`, for which, in [8], inhibition was half-maximal at 7.5 nM (IC50). In turn, `COc1ccc(CN2C(=O)C(=O)c3cc(OC(F)(F)F)ccc32)cc1` gave an Emax in assay [3] of 91%. With `Nc1sc(-c2ccccc2)cc1C(=O)c1ccccc1`, the negative logarithm of the Kb (pKb) in assay [1] was 6.36. Compound `O=C(O)c1cn(Cc2ccc(-c3ccccc3)cc2)c2cccc(F)c2c1=O` gave an EC50 in [5] of 84 nM. With `Cc1ccc(C(=O)c2c(N)sc3c2CCCC3)cc1`, the pKb in assay [1] was 5.1. The compound `O=C(O)c1cn(Cc2ccc(-c3ccccc3)cc2)c2c(F)cccc2c1=O` gave an EC50 in assay [5] of 380 nM.

For `Nc1sc2c(c1C(=O)c1ccc(Cl)cc1)CC1C=C(C(F)(F)F)C=CC1C2` (stereo unspecified), the pKb in assay [1] worked out at 5.12.

In the case of `Nc1sc2c(c1C(=O)c1ccccc1)CCCCCC2`, the pKb in assay [1] is 5.08. The same measure, in the same setting: to `Nc1scc(-c2cccc(C(F)(F)F)c2)c1C(=O)c1ccc(Cl)cc1` belongs 5.74. Same read-out and setting: in the case of `Nc1scc(-c2cc(C(F)(F)F)cc(C(F)(F)F)c2)c1C(=O)c1ccccc1` it was 5.22; in that of `CCOC(=O)c1nn(-c2cccc(Cl)c2)c(=O)c2c(N)scc12`, 8.3.

On to `O=C(Nc1ccccn1)[C@]12C[C@H]1/C(=N\O)c1ccccc1O2`, for which the EC50 in [9], in assay [10], in assay [11], in assay [12], in [14] and in assay [15] was more than 30 µM throughout. In assay [7], this compound had an EC50 of more than 30 µM. The compound further showed an Emax in assay [13] of 121%.

`Nc1scc(-c2cccc(C(F)(F)F)c2)c1C(=O)c1ccccc1`: in assay [1], the pKb is 6.37. The compound `Cn1cc(-c2ccc(Cn3cc(C(=O)O)c(=O)c4c(F)cccc43)c(F)c2)cn1` showed an EC50 in assay [5] of 41 nM.
